According to article PMC7230911, “Meroterpenoids from the Brown Alga Cystoseira usneoides as Potential Anti-Inflammatory and Lung Anticancer Agents” (Marine Drugs, 2020):
Where two headings read alike, the source gives them in different places.

Key:
[1] = test system: A549 human cancer cell line; conditions: cited from earlier work
[2] = test system: LPS-stimulated RAW264.7 macrophages; conditions: cited from earlier work
[3] = test system: several human cancer cell lines, including A549 cells; set-up: method as in PMID 19271727, PMID 22920243; conditions: mean over several human cancer cell lines; cited from earlier work
[4] = test system: A549 cells; experiment: Cell cycle analysis of A549 cells by flow cytometry; assay type: cell-based, human; conditions: 0.2 μg/mL, 24 h, positive control
Procedure: We next investigated whether the treatment with AMTs 1–8 caused any cell cycle-related event, which inhibit the viability of A549 cell line. Thus, the cells were treated for 24 h with the AMTs at concentrations of IC50 (Table 1), or with colchicine (at 0.2 μg/mL) as the positive control, and then subjected to flow cytometry analysis to evaluate the distribution of cells in the different phases of the cell cycle (Figure 5A).
Figure 5 Effects of meroterpenoids 1–8 on cell cycle distribution of A549 cells. Cells were incubated with IC50 doses of the compounds for 24 h. (A) Cells were harvested to measure the cell cycle distribution by flow cytometry. (B) Quantitative analysis of cell cycle distribution after treatment. Data represent mean ±SE from three independent experiments. * p < 0.05, ** p < 0.01, and *** p < 0.001 compared with the untreated group (control).
For cell cycle analysis by flow cytometry, A549 cells were seeded at 1 × 10^6 cells/well in 6-well plates and incubated for 24 h followed by treatment with the AMTs, at concentration of IC50, and further incubation for 24 h. Colchicine (final concentration of 0.2 μg/mL) was used as positive control. Cells were harvested after trypsinization and washed once with PBS. Then, the cells were centrifuged at 1500 rpm for 5 min (25 °C), the pellet was fixed with 1 mL of ice-cold 70% ethanol, and the samples were stored at −4 °C overnight. Then the cells were washed with PBS and incubated in the darkness with PBS containing 5 mg/mL of RNase A for 48 h at 4 °C. Subsequently, 50 µL of propidium iodide (0.1 mg/mL) was added and the cells were incubated for 1 h at 4 °C. The relative DNA content per cell was analyzed using a Beckman Coulter Cytomics FC 500 MPL (Beckman Coulter Inc, San Diego, CA, USA). The data acquisition was performed with the DML program. The analysis of the acquired data was performed with the CXP cytometer.

[5] = test system: several human cancer cell lines, including A549 cell line; set-up: method as in PMID 22775218; conditions: cited from earlier work

## 5β-hydroxyaplysin
[1]; read-out: IC50 towards A549
  IC50: 35.3 µM

## 5β-hydroxypalisadin B
[2]
  production of NO, TNF-α, IL-6, IL-1β and COX-2, iNOS expression (in words): inhibit

## C=C(C)[C@@H]1CCC(C)(O)[C@H](Br)CC[C@@]2(C)C(=C(C)CC[C@@H]2Br)Cc2cc(ccc2O)C(=O)O1 (stereo partly shown) [bromophycolide M]
[3]
  IC50: 3.1 µM

## C=C(C)[C@@H]1CCC(C)(O)[C@H](Br)CC[C@@]2(C)[C@H](Cc3cc(ccc3O)C(=O)O1)C(C)=CC[C@@H]2Br (stereo partly shown) [bromophycolide N]
[3]
  IC50: 8.6 µM

## CC1=CC[C@H](Br)[C@@]2(C)CC[C@@H](Br)C(C)(O)CC[C@@H](C(C)(C)Br)OC(=O)c3ccc(O)c(c3)C[C@H]12 (stereo partly shown) [bromophycolide O]
[3]
  IC50: 9.7 µM

## C=C1CC[C@H](Br)[C@@]2(C)CC[C@@H](Br)[C@@]3(C)CC[C@H](OC(=O)c4ccc(O)c(c4)C[C@H]12)C(C)(C)O3 [bromophycolide P]
[3]
  IC50: 7.9 µM

## CC1=C2Cc3cc(ccc3O)C(=O)O[C@H]3CC[C@@](C)(OC3(C)C)[C@H](Br)CC[C@]2(C)[C@@H](Br)CC1 [bromophycolide Q]
[3]
  IC50: 2 µM

## COc1cc2c(c(OC)c1OC)-c1ccc(OC)c(=O)cc1[C@@H](NC(C)=O)CC2 [colchicine, reference compound]
[4]
  cells arrested in G2/M phase: 89.88%

## C=C1C[C@H](O)[C@H](Br)C(C)(C)[C@@]12CCC(C)=C(Cl)C2 [elatol]
[5]
  cell cycle effect (in words): cell cycle arrest in the G1 and the sub-G1 phases
[1]; read-out: IC50 towards A549
  IC50: 4.8 µM

## CC(C)[C@@H]1CC=C[C@H]2[C@H]3[C@@](C)(C=CC(=O)[C@@]3(C)O)CC[C@]12CBr [sphaerococcenol A]
[1]; read-out: IC50 growth of A549 cells
  IC50: 3.7 µM

## bromophycoic acid D
[3]
  IC50: 6.8 µM

## nerogioltriol
[2]
  activation of NFκB and production of NO, TNF-α and COX-2 (in words): inhibit
